In patent US12473295B2, “Substituted straight chain spiro derivatives” (Janssen Pharmaceutica NV, priority 2019, dated 2025):
Structures can show the parent of a compound that is named as a salt.

How the values were obtained:
[1] = molecular target: menin/MLL (terbium chelate-labeled menin, FITC-MBM1 peptide) (Homo sapiens (Human), UniProt O00255); assay: Menin/MLL homogenous time-resolved fluorescence (HTRF) assay; format: binding; details: HTRF-30 min incubation IC50, 30 min incubation;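 note: IC50 from percent inhibition of HTRF signal, normalized between wells without competitor and wells with a saturating competitor that displaces FITC-MBM1 from His-tagged menin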
[2] = tested on: MOLM14 cells; assay: Proliferation assay (spheroid growth, 8 days), MOLM14; format: cell-based, human; details: Homo sapiens, MOLM-14, […], MOLM14, 8 days; read-out: spheroid assay_OneTime MOLM14 IC50;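 note: spheroid size read as confluence by live-cell imaging, compounds added at a range of concentrations with 0.3% DMSO, DMSO-treated wells = 0%, highest reference dose = low control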
[3] = tested on: OCI-AML3 cells; assay: Proliferation assay (spheroid growth, 8 days), OCI-AML3; format: cell-based, human; details: Homo sapiens, OCI-AML-3, […], OCI-AML3, 8 days
Method in brief: (§1)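 Spheroid size on day 8, taken as live-cell imaging confluence, served as readout after 8-day compound exposure (0.3% DMSO, 37 °C, 5% CO2) in round-bottom low-attachment wells. Seeding was 200 cells for MOLM14 and OCI-AML3, 300 for KO-52. IC50 came from % effect versus DMSO and reference baseline, fitted with variable slope.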

[4] = tested on: KO-52 cells; assay: Proliferation assay (spheroid growth, 8 days), KO-52 control cell line; format: cell-based, human; details: Homo sapiens, […], read-out: spheroid assay_OneTime KO-52 IC50
Method in brief: as §1

[5] = tested on: MEIS1 mRNA; assay: MEIS1 mRNA expression assay (Quantigene Singleplex) in MOLM14 cells; format: cell-based, human; details: Homo sapiens, MOLM-14, 48 h, 48 hours incubation;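 note: MEIS1 transcript levels read by probe hybridization and normalized to RPL28 mRNA, with IC50 fitted to fold changes across a rising compound concentration series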

menin/MLL (terbium chelate-labeled menin, FITC-MBM1 peptide), sequence (O00255 other isoform, or with tags, fused parts or gaps): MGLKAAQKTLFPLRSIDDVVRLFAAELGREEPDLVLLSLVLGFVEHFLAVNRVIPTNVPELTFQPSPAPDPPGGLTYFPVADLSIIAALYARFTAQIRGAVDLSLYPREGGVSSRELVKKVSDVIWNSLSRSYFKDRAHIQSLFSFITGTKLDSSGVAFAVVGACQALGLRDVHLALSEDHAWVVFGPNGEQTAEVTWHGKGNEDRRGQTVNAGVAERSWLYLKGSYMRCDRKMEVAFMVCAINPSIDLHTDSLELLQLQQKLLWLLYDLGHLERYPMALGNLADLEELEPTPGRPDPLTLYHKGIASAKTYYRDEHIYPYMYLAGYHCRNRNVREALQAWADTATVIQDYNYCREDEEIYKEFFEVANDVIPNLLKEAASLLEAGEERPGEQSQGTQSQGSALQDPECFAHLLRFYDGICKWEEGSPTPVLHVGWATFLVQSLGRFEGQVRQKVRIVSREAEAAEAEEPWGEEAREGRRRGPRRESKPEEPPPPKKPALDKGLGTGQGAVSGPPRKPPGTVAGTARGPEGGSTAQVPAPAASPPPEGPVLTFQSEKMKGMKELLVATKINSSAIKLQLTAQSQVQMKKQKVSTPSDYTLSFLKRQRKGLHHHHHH

| Compound | IC50 [1] [nM] | IC50 [2] [nM] | IC50 [3] [nM] | IC50 [4] [nM] | IC50 [5] [nM] |
| --- | --- | --- | --- | --- | --- |
| CC(C)[C@@H](C[C@H](O)CN(C)C)N1CC2(CCN(c3ncnnc3Oc3ccc(F)cc3C(=O)N(C(C)C)C(C)C)C2)C1 (single isomer, unassigned) [Compound 366] | 0.088 | 17 | 76 | > 15000 | 20 |
| CCCN(C)C[C@H](O)C[C@H](C(C)C)N1CC2(CCN(c3ncnnc3Oc3ccc(F)cc3C(=O)N(CC)C(C)C)C2)C1 (single isomer, unassigned) [Compound 386, N-ethyl-5-fluoro-2-((5-(2-((3*R,5*R)-5-hydroxy-2-methyl-6-(methyl(propyl)amino)hexan-3-yl)-2,6-diazaspiro[3.4]octan-6-yl)-1,2,4-triazin-6-yl)oxy)-N-isopropylbenzamide fumarate] | ~0.59 | 160 | 810 | 9600 | 61 |
| CCN(C)C[C@@H](O)C[C@H](C(C)C)N1CC2(CCN(c3ncnnc3Oc3ccc(F)cc3C(=O)N(C(C)C)C(C)C)C2)C1 (single isomer, unassigned) [Compound 391, 2-((5-(2-((3*R,5*S)-6-(ethyl(methyl)amino)-5-hydroxy-2-methylhexan-3-yl)-2,6-diazaspiro[3.4]octan-6-yl)-1,2,4-triazin-6-yl)oxy)-5-fluoro-N,N-diisopropylbenzamide fumarate] | 0.9 | 490 | 2100 | > 15000 | 160 |
| CCN(C(=O)c1cc(F)ccc1Oc1nncnc1N1CCC2(C1)CN(C(CCCN)C(C)C)C2)C(C)C (stereo not shown) [Compound 3, 2-((5-(2-(6-amino-2-methylhexan-3-yl)-2,6-diazaspiro[3.4]octan-6-yl)-1,2,4-triazin-6-yl)oxy)-N-ethyl-5-fluoro-N-isopropylbenzamide formate] | 0.1 | 42 | 310 | > 15000 | 95 |
| CCN(C(=O)c1cc(F)ccc1Oc1nncnc1N1CCC2(C1)CN([C@H](CCCNC(=O)NC)C(C)C)C2)C(C)C [Compound 8, (R)-N-ethyl-5-fluoro-N-isopropyl-2-((5-(2-(2-methyl-6-(3-methylureido)hexan-3-yl)-2,6-diazaspiro[3.4]octan-6-yl)-1,2,4-triazin-6-yl)oxy)benzamide] | 0.43 | 1020 | 2150 | > 15000 | ~650 |
| CCN(C(=O)c1cc(F)ccc1Oc1nncnc1N1CCC2(C1)CN([C@H](CCCNCC(F)F)C(C)C)C2)C(C)C [Compound 15, (R)-2-((5-(2-(6-((2,2-difluoroethyl)amino)-2-methylhexan-3-yl)-2,6-diazaspiro[3.4]octan-6-yl)-1,2,4-triazin-6-yl)oxy)-N-ethyl-5-fluoro-N-isopropylbenzamide] | 0.25 | 100 | 460 | 3700 | 71 |
| CCN(C(=O)c1cc(F)ccc1Oc1nncnc1N1CCC2(C1)CN(C(CCN)C(C)C)C2)C(C)C (stereo not shown) [Compound 26, 2-((5-(2-(1-amino-4-methylpentan-3-yl)-2,6-diazaspiro[3.4]octan-6-yl)-1,2,4-triazin-6-yl)oxy)-N-ethyl-5-fluoro-N-isopropylbenzamide] | 0.28 | 270 | 1340 | > 15000 | 490 |
| CCN(C(=O)c1cc(F)ccc1Oc1nncnc1N1CCC2(C1)CN(C(CCCNCC(C)(C)OC)C(C)C)C2)C(C)C (stereo not shown) [Compound 69, N-ethyl-5-fluoro-N-isopropyl-2-((5-(2-(6-((2-methoxy-2-methylpropyl)amino)-2-methylhexan-3-yl)-2,6-diazaspiro[3.4]octan-6-yl)-1,2,4-triazin-6-yl)oxy)benzamide] | 0.099 | 20 | 87 | 7180 | 16 |
| CC(C)C(CCCN(C)C)N1CC2(CCN(c3ccnnc3Oc3ccc(F)cc3C(=O)N(C(C)C)C(C)C)C2)C1 (stereo not shown) [Compound 74, 2-((4-(2-(6-(dimethylamino)-2-methylhexan-3-yl)-2,6-diazaspiro[3.4]octan-6-yl)pyridazin-3-yl)oxy)-5-fluoro-N,N-diisopropylbenzamide] | 0.51 | 140 | 1290 | 10600 | 260 |
| CCN(C(=O)c1cc(F)ccc1Oc1nncnc1N1CCC2(C1)CN([C@H](CCCNCC(C)(C)OC)C(C)C)C2)C(C)C [Compound 135, (R)-N-ethyl-5-fluoro-N-isopropyl-2-((5-(2-(6-((2-methoxy-2-methylpropyl)amino)-2-methylhexan-3-yl)-2,6-diazaspiro[3.4]octan-6-yl)-1,2,4-triazin-6-yl)oxy)benzamide fumarate] | 0.057 | 13 | 230 | 9690 | 16 |
| CCN(C(=O)c1cc(F)ccc1Oc1nncnc1N1CCC2(C1)CN([C@H](CCCN(C)CC(C)(C)OC)C(C)C)C2)C(C)C [Compound 137, (R)-N-ethyl-5-fluoro-N-isopropyl-2-((5-(2-(6-((2-methoxy-2-methylpropyl)(methyl)amino)-2-methylhexan-3-yl)-2,6-diazaspiro[3.4]octan-6-yl)-1,2,4-triazin-6-yl)oxy)benzamide fumarate] | 0.18 | 45 | 160 | 7290 | 25 |
| CCN(C(=O)c1cc(F)ccc1Oc1nncnc1N1CCC2(C1)CN([C@H](CCCN(C)CC(C)(C)O)C(C)C)C2)C(C)C [Compound 140, (R)-N-ethyl-5-fluoro-2-((5-(2-(6-((2-hydroxy-2-methylpropyl)(methyl)amino)-2-methylhexan-3-yl)-2,6-diazaspiro[3.4]octan-6-yl)-1,2,4-triazin-6-yl)oxy)-N-isopropylbenzamide fumarate] | 0.093 | 110 | 330 | 5750 | 28 |
| CCN(C(=O)c1cc(F)ccc1Oc1nncnc1N1CCC2(C1)CN([C@H](CCCN(C)CCCOC)C(C)C)C2)C(C)C [Compound 142, (R)-N-ethyl-5-fluoro-N-isopropyl-2-((5-(2-(6-((3-methoxypropyl)(methyl)amino)-2-methylhexan-3-yl)-2,6-diazaspiro[3.4]octan-6-yl)-1,2,4-triazin-6-yl)oxy)benzamide fumarate] | 0.071 | 12 | 220 | > 15000 | 51 |
| CCN(C(=O)c1cc(F)ccc1Oc1nncnc1N1CCC2(C1)CN([C@H](CCCN(C)CC(OC)OC)C(C)C)C2)C(C)C [Compound 150, (R)-2-((5-(2-(6-((2,2-dimethoxyethyl)(methyl)amino)-2-methylhexan-3-yl)-2,6-diazaspiro[3.4]octan-6-yl)-1,2,4-triazin-6-yl)oxy)-N-ethyl-5-fluoro-N-isopropylbenzamide fumarate] | 0.26 | 14 | 160 | 8700 | 13 |
